# Measured values reported in patent publication US7888347B2, “Pyrazolo [3,4-D]azepine derivatives as histamine H3 antagonists” (Glaxo Group Limited, priority 2005, dated 2011).
# Target: T1, histamine H3 receptor (Homo sapiens, UniProt Q9Y5N1)
# T1 construct: expressed in transfected cells; host or cells: CHO K1 cells (pSwitch/pGene GeneSwitch system, mifepristone-induced), clone 3H3; membrane preparation
# Test: Histamine H3 functional antagonist assay ([35S]-GTPγS SPA on membranes)
# Format: biochemical
# Conditions: hydrochloride salts tested; membrane prepared from cultured H3 cells; averages of a number of experiments; read-out: functional pKi (fpKi), histamine H3 functional antagonism (converted)
# Description: A membrane preparation containing histamine H3 receptors may be prepared in accordance with the following procedures:
# (i) Generation of Histamine H3 Cell Line
# DNA encoding the human histamine H3 gene (Huvar, A. et al. (1999) Mol. Pharmacol. 55(6), 1101-1107) was cloned into a holding vector, pCDNA3.1 TOPO (InVitrogen) and its cDNA was isolated from this vector by restriction digestion of plasmid DNA with the enzymes BamH1 and Not-1 and ligated into the inducible expression vector pGene (InVitrogen) digested with the same enzymes. The GeneSwitch™ system (a system where in transgene expression is switched off in the absence of an inducer and switched on in the presence of an inducer) was performed as described in U.S. Pat. Nos. 5,364,791; 5,874,534; and 5,935,934. Ligated DNA was transformed into competent DH5α E. coli host bacterial cells and plated onto Luria Broth (LB) agar containing Zeocin™ (an antibiotic which allows the selection of cells expressing the sh ble gene which is present on pGene and pSwitch) at 50 μg ml^−1. Colonies containing the re-ligated plasmid were identified by restriction analysis. DNA for transfection into mammalian cells was prepared from 250 ml cultures of the host bacterium containing the pGeneH3 plasmid and isolated using a DNA preparation kit (Qiagen Midi-Prep) as per manufacturers guidelines (Qiagen).
# CHO K1 cells previously transfected with the pSwitch regulatory plasmid (InVitrogen) were seeded at 2×10e6 cells per T75 flask in Complete Medium, containing Hams F12 (GIBCOBRL, Life Technologies) medium supplemented with 10% v/v dialysed foetal bovine serum, L-glutamine, and hygromycin (100 μg ml^−1), 24 hours prior to use. Plasmid DNA was transfected into the cells using Lipofectamine plus according to the manufacturers guidelines (InVitrogen). 48 hours post transfection cells were placed into complete medium supplemented with 500 μg ml^−1 Zeocin™.
# 10-14 days post selection 10 nM Mifepristone (InVitrogen), was added to the culture medium to induce the expression of the receptor. 18 hours post induction cells were detached from the flask using ethylenediamine tetra-acetic acid (EDTA; 1:5000; InVitrogen), following several washes with phosphate buffered saline pH 7.4 and resuspended in Sorting Medium containing Minimum Essential Medium (MEM), without phenol red, and supplemented with Earles salts and 3% Foetal Clone II (Hyclone). Approximately 1×10e7 cells were examined for receptor expression by staining with a rabbit polyclonal antibody, 4a, raised against the N-terminal domain of the histamine H3 receptor, incubated on ice for 60 minutes, followed by two washes in sorting medium. Receptor bound antibody was detected by incubation of the cells for 60 minutes on ice with a goat anti rabbit antibody, conjugated with Alexa 488 fluorescence marker (Molecular Probes). Following two further washes with Sorting Medium, cells were filtered through a 50 μm Filcon™ (BD Biosciences) and then analysed on a FACS Vantage SE Flow Cytometer fitted with an Automatic Cell Deposition Unit. Control cells were non-induced cells treated in a similar manner. Positively stained cells were sorted as single cells into 96-well plates, containing Complete Medium containing 500 μg ml^−1 Zeocin™ and allowed to expand before reanalysis for receptor expression via antibody and ligand binding studies. One clone, 3H3, was selected for membrane preparation.
# (ii) Membrane Preparation from Cultured Cells
# All steps of the protocol are carried out at 4° C. and with pre-cooled reagents. The cell pellet is resuspended in 10 volumes of homogenisation buffer (50 mM N-2-hydroxyethylpiperazine-N′-2-ethanesulfonic acid (HEPES), 1 mM ethylenediamine tetra-acetic acid (EDTA), pH 7.4 with KOH), supplemented with 10e-4M leupeptin (acetyl-leucyl-leucyl-arginal; Sigma L2884), 25 μg/ml bacitracin (Sigma B0125), 1 mM phenylmethylsulfonyl fluoride (PMSF) and 2×10e-6M pepstatin A (Sigma). […]
# T1 sequence (Q9Y5N1 whole entry): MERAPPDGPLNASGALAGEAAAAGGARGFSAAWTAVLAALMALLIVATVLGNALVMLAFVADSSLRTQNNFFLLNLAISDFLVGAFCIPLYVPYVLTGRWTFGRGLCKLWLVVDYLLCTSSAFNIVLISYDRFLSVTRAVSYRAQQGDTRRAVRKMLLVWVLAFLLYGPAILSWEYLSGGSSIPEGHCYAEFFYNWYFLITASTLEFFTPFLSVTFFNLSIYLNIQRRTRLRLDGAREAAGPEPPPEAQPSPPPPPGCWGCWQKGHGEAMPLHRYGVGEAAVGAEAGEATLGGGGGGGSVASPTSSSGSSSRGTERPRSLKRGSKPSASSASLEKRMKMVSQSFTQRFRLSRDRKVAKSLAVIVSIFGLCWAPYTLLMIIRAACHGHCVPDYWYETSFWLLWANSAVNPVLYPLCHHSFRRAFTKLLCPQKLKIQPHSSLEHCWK
row,Ki,Compound
1,< 1 nM,"c1cc(-n2cc3c(n2)CCN(C2CCC2)CC3)ccc1N1CCOCC1 [Example E39, 6-Cyclobutyl-2-[4-(4-morpholinyl)phenyl]-2,4,5,6,7,8-hexahydropyrazolo[3,4-d]azepine]"
2,< 1 nM,CC(C)CN1CCc2cn(-c3ccc(N4CCOC4=O)cc3)nc2CC1 [Example E42]
3,< 1 nM,"Cc1ccc(N2CCC(n3cc4c(n3)CCN(C3CCC3)CC4)CC2)cn1 [Example E44, 6-Cyclobutyl-2-[1-(6-methyl-3-pyridinyl)-4-piperidinyl]-2,4,5,6,7,8-hexahydropyrazolo[3,4-d]azepine]"
4,< 1 nM,CN1CCN(c2ccc(-n3cc4c(n3)CCN(C3CCCC3)CC4)cc2)C1=O [Example E31]
5,< 1 nM,O=C1OCCN1c1ccc(-n2cc3c(n2)CCN(C2CCCC2)CC3)cc1 [Example E30]
6,< 0.316 nM,"O=C1OCCN1c1ccc(-n2cc3c(n2)CCN(C2CCC2)CC3)cc1 [Example E37, 3-[4-(6-Cyclobutyl-5,6,7,8-tetrahydropyrazolo[3,4-d]azepin-2(4H)-yl)phenyl]-1,3-oxazolidin-2-one]"
7,< 0.316 nM,CN1CCN(c2ccc(-n3cc4c(n3)CCN(C3CCC3)CC4)cc2)C1=O [Example E36]

# Second part, the compound before the results:
row,Compound,Ki
1,"CCN1CCc2cn(-c3ccc(N4CCCC4=O)cc3)nc2CC1 [Example E18, 1-[4-(6-Ethyl-5,6,7,8-tetrahydropyrazolo[3,4-d]azepin-2(4H)-yl)phenyl]-2-pyrrolidinone]",< 0.316 nM
2,"O=C1CCCN1c1ccc(-n2cc3c(n2)CCN(C2CCC2)CC3)cn1 [Example E12, 1-[5-(6-Cyclobutyl-5,6,7,8-tetrahydropyrazolo[3,4-d]azepin-2(4H)-y)-2-pyridinyl]-2-pyrrolidinone]",< 1 nM
3,"CC(C)N1CCc2cn(-c3ccc(N4CCOC4=O)cc3)nc2CC1 [Example E9, 3-{4-[6-(1-Methylethyl)-5,6,7,8-tetrahydropyrazolo[3,4-d]azepin-2(4H)-yl]phenyl}-1,3-oxazolidin-2-one]",< 1 nM
4,"CC(C)N1CCc2cn(-c3ccc(N4CCCC4=O)cc3)nc2CC1 [Example E14, 1-{4-[6-(1-Methylethyl)-5,6,7,8-tetrahydropyrazolo[3,4-d]azepin-2(4H)-yl]phenyl}-2-pyrrolidinone]",< 1 nM
5,O=C1CCCN1c1ccc(-n2cc3c(n2)CCN(C2CCC2)CC3)cc1 [Example E13],< 0.316 nM
6,"Cc1noc(-c2ccc(-n3cc4c(n3)CCN(C3CCC3)CC4)cc2)n1 [Example E25, 6-Cyclobutyl-2-[4-(3-methyl-1,2,4-oxadiazol-5-yl)phenyl]-2,4,5,6,7,8-hexahydropyrazolo[3,4-d]azepine]",< 1 nM
7,"Cc1noc(-c2ccc(-n3cc4c(n3)CCN(C(C)C)CC4)cc2)n1 [Example E15, 6-(1-Methylethyl)-2-[4-(3-methyl-1,2,4-oxadiazol-5-yl)phenyl]-2,4,5,6,7,8-hexahydropyrazolo[3,4-d]azepine]",< 1 nM
8,CC(C)CN1CCc2cn(-c3ccc(N4CCCC4=O)cc3)nc2CC1 [Example E20],< 1 nM
9,"CC(C)N1CCc2cn(-c3ccc(N4CCN(C)C4=O)cc3)nc2CC1 [Example E10, 1-Methyl-3-{4-[6-(1-methylethyl)-5,6,7,8-tetrahydropyrazolo[3,4-d]azepin-2(4H)-yl]phenyl}-2-imidazolidinone]",< 1 nM
10,"O=C1CCCN1c1ccc(-n2cc3c(n2)CCN(C2CCCC2)CC3)cc1 [Example E24, 1-[4-(6-Cyclopentyl-5,6,7,8-tetrahydropyrazolo[3,4-d]azepin-2(4H)-yl)phenyl]-2-pyrrolidinone]",< 1 nM
11,"Cc1noc(-c2ccc(-n3cc4c(n3)CCN(C3CCCC3)CC4)cc2)n1 [Example E27, 6-Cyclopentyl-2-[4-(3-methyl-1,2,4-oxadiazol-5-yl)phenyl]-2,4,5,6,7,8-hexahydropyrazolo[3,4-d]azepine]",< 1 nM
